{"source": "patent US20160151458A1", "about": "“Use Of Unacylated Ghrelin, Fragments And Analogs Thereof As Antioxidant” (ALIZE PHARMA SAS, priority 2013, published 2016)", "key": {"[1]": {"system": "SCs transfected with SOD-2 siRNA", "test": "In-vitro ischemia of SCs silenced for SOD-2 by siRNA", "assay_type": "cell-based, C57BL/6J mice", "experimental": "(§1) SCs were isolated from gastrocnemius muscles of C57BL/6J wild type mice subjected to ischemia or C57BL/6J mice lacking the GHSR1a and ghrelin genes (10 mice, kind gift of Professor M. Tschöp)^39. To obtain SCs, muscle samples were subjected to enzymatic digestion as described^45. In selected experiments, SCs were recovered from normo-perfused muscles and subjected to in-vitro ischemia in presence of saline, AG (1 μmol/L) or UAG (1 μmol/L). In-vitro ischemia was induced by incubating cells in DMEM+2% FCS at 5% CO2/95% N2 humidified atmosphere, yielding 1% O2 concentrations for 24 h^18. The in-vitro ischemia was also performed in the presence of SB202190 (1 μmol/L).\n(§2) SC cell-cycle progression was evaluated by evaluating the percentage of PCNA-positive cells or by FACS analysis as previously described^46. The percentage of cells in each cell cycle phase was determined by ModFit LT software (Verity Software House. Inc, topsham, ME, USA). Celss proliferation was also assayed by evaluating the percentage of PCNA-positive cells by FACS analysis.\n(§3) Cells were lysed and protein detection was obtained as previously described^47. Cells were lysed (50 mmol/L Tris HCl [pH 8.3], 1% Triton X-100, 10 mmol/L PMSF, 100 U/ml aprotinin, 10 μmol/L leupeptin) and protein concentrations were obtained as previously described^47. […] Densitometric analysis was used to calculate the differences in the fold induction of protein levels and normalized to tubulin, a actin or p38MAPK content. Values are reported as relative amount\n(§4) Intracellular ROS production was evaluated using DCF-DA (5-(and-6)-carboxy-2′,7′-dichlorofluorescein diacetate, […] final concentration) (Molecular Probe, Invitrogen) assay as previously described^23. The formation of TBARS was determined in muscles using the OXI-TEK kit (ZeptoMetrix Corp.) and a luminescence spectrometer (Bio-Rad Laboratories, Hercules, Calif.) with excitation set at 530 nm, emission at 550 nm to measure in-vivo oxidative stress levels^33.\n(§5) Total RNA was isolated using TRIzol reagent (Invitrogen) from SCs recovered from muscles of treated animals or from SCs subjected to in-vitro ischemia. miR-221/222 expression was evaluated by qRT-PCR as previously described^48. Loss-of-function experiments were performed in SCs transfected for 48 h with anti-miRNA negative control, anti-miR-221/222 antagonists (Applied Biosystem, Foxter Cyto CA, USA), according to the manufacturer's instructions^48.\nTo obtain SOD-2 inactivation, SCs were transiently transfected with siRNA for SOD-2 or with duplex siRNAs (Qiagen, Valencia, Calif., USA) as previously described^44. Transfection was performed according to the manufacturer's instructions. Whole cell extracts were processed 48 h after transfection. Cell viability was evaluated at the end of each experiment."}, "healthy volunteers": {"system": "healthy volunteers", "conditions": "administered concomitantly with ghrelin; cited from earlier work"}, "[2]": {"system": "BaCl2-injected gastrocnemius muscles of C57BL/6J mice", "test": "Toxic muscle damage induced by 1% barium chloride (BaCl2)", "assay_type": "in vivo", "conditions": "1% BaCl2; FIG. 3E", "experimental": "(§6) Male C57BL/6J mice (Charles River Lab., Wilmington, Mass., USA) were anesthetized and unilateral hind limb ischemia was induced as described^42. The normo-perfused contralateral limb of each mouse was used as an internal control. After hind-limb ischemia, animals (18 mice per group) were treated by intra-peritoneal injection daily from 0 to day 21 with either saline, AG (100 μg/kg) or UAG (100 μg/kg). In selected experiments, mice received intramuscular injections of pre-miR oligonucleotides (5 mice/group). To induce toxic damage, 100 μl of 1% barium chloride (BaCl2, Sigma Aldrich) was injected unilaterally into the hind limb (9 mice). Mice were treated according to European Guidelines and policies as approved by the University of Turin Ethical Committee.\n(§7) Gastrocnemius muscle sections from ischemic or normo-perfused limbs were stained with hematoxylin and eosin for histological analysis. The proportion of fibers with central nuclei (regenerating fibers) was measured by MetaMorph software (Life Sciences Research Imaging Systems) in the injured area and the cross-sectional areas of the fibers in the injured and non-injured areas. For IF analysis, muscle sections were processed as described previously^44. The number of cells expressing the indicated markers or CD31 positive vessels was evaluated as previously described^34."}, "SCs from double KO mice": {"system": "SCs from double KO mice", "test": "In-vitro ischemia of SCs from double KO mice lacking the GHSR1a and ghrelin genes", "assay_type": "cell-based, C57BL/6J mice lacking the GHSR1a and ghrelin genes", "experimental": "as §1, §2, §3, §4"}, "[3]": {"system": "C2C12 mouse muscular cell line", "test": "ROS production (DCF-DA) in C2C12 cells under oxidative stress", "assay_type": "cell-based", "conditions": "1 μmol/L; stress by hypoxia (1% O2), AGEs, hyperglycemia (25 mM) or H2O2; FIG. 8", "experimental": "Kinetic analysis of ROS production was evaluated by using DCF-DA (5-(and-6)-carboxy-2′,7′-dichlorofluorescein diacetate, 0.5 μmol/L final concentration) (Molecular Probe, Invitrogen) assay. C2C12 cells were cultured with 400 μg/ml Advanced Glycated End-product (AGE) or 25 mM glucose (high glucose HG) for 48 h, H2O2 (100 μM) for 2 h. In parallel experiments C2C12 cells were subjected to hypoxia (DMEM+2% FCS in a 5% CO2-95% N2 humidified atmosphere, yielding to 1% O2 concentrations for 24 h). UAG (1 μmol/L) AZP 531 (1 μmol/L) or AZP-502 (1 μmol/L) was added where indicated."}, "primary SCs": {"system": "primary SCs", "test": "In-vitro ischemia of primary SCs from normo-perfused muscles", "assay_type": "cell-based, C57BL/6J mice", "conditions": "1 μmol/L, 1% O2 24 h", "experimental": "as §1, §2, §3, §4, §5"}, "[4]": {"system": "unilateral hind limb ischemia in C57BL/6J mice (ischemic gastrocnemius muscle)", "test": "Murine hind-limb ischemia model", "assay_type": "in vivo", "conditions": "for Pax-7/MyoD+ cells in ischemic muscles: FIG. 2A", "experimental": "as §6\nSemiquantitative estimation (by repeated measures analyzed with ANOVA and Newman-Keuls Multiple Comparison test) of foot damage was performed serially using the following classification: 3=dragging of foot (foot necrosis), 2=no dragging but no plantar flexion (foot damage), 1=plantar flexion but no toe flexion (toe damage), and 0=flexing the toes to resist gentle traction on the tail (no damage)^43.\nas §7, §4"}, "[5]": {"system": "satellite cells (SCs) from ischemic muscles", "test": "SCs recovered from ischemic muscles of treated mice (ex vivo analysis)", "assay_type": "in vivo, C57BL/6J mice", "experimental": "as §6, §1, §3, §4, §5"}, "GHSR-1a": {"molecular_target": "GHSR-1a (Homo sapiens, UniProt Q92847)", "sequence (Q92847 whole entry)": "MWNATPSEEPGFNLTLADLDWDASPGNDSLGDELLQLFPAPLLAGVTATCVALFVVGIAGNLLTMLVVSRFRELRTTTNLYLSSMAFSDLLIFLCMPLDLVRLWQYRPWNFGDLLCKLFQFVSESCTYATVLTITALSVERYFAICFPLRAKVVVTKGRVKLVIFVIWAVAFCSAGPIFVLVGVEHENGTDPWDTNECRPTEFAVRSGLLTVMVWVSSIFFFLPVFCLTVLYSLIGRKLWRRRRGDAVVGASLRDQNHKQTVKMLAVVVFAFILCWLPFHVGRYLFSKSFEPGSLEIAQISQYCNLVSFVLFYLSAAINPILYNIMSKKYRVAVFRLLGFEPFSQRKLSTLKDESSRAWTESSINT", "conditions": "at physiological concentrations; cited from earlier work"}, "[6]": {"system": "SCs transfected with anti-miR-221/222", "test": "Loss-of-function: SCs transfected with anti-miR-221/222 antago-miRs", "assay_type": "cell-based, mice", "conditions": "anti-miR-221/222 transfected SCs; data not shown", "experimental": "as §5"}}, "data": [{"substance": "Gly-Ser-Ser-Phe-Leu-Ser-Pro-Glu-His-Gln-Arg-Val-Gln-Gln-Arg-Lys-Glu-Ser-Lys-Lys-Pro-Pro-Ala-Lys-Leu-Gln-Pro-Arg (GSSFLSPEHQRVQQRKESKKPPAKLQPR; listed as Homo sapiens) [UAG]", "values": [{"measurement": "UAG-induced miR-221/222 expression", "setting": "[1]; SOD-2 knock-down, FIG. 7B", "result": "SOD-2 knock-down prevents UAG-induced miR-221/222 expression"}, {"measurement": "protection against ROS generation", "setting": "[1]; SOD-2 silenced, FIG. 5B", "result": "did not protect SCs against ROS generation"}, {"measurement": "cell-cycle progression", "setting": "[1]; SOD-2 silenced, FIG. 5C", "result": "the cells did not undergo cell-cycle progression"}, {"measurement": "p38/MAPK phosphorylation", "setting": "[1]; SOD-2 silenced, FIG. 5D", "result": "did not induce p38/MAPK phosphorylation"}, {"measurement": "effect on the hyperglycemic effects of ghrelin", "setting": "healthy volunteers", "result": "prevent the hyperglycemic effects of ghrelin"}, {"measurement": "regeneration of skeletal muscle after ROS-independent toxic damage", "setting": "[2]", "result": "regeneration of skeletal muscle was no longer observed"}, {"measurement": "SC cell-cycle progression", "setting": "SCs from double KO mice; FIG. 5G", "result": "only UAG promoted SC cell-cycle progression"}, {"measurement": "SOD-2 expression", "setting": "SCs from double KO mice; FIG. 5I", "result": "induced SOD-2 expression"}, {"measurement": "protection from ROS generation", "setting": "SCs from double KO mice; FIG. 5J", "result": "protected SCs from ROS generation"}, {"measurement": "p-p38/MAPK, Pax-7, MyoD, Myf5 and myogenin expression", "setting": "SCs from double KO mice; FIGS. 5H, 5I", "result": "induced p-p38/MAPK, Pax-7, MyoD, Myf5 and myogenin expression"}, {"measurement": "protection against oxidative stress (ROS production)", "setting": "[3]", "result": "have a protective effect on C2C12 cells against oxidative stress"}, {"measurement": "PCNA expression", "setting": "primary SCs; FACS, FIG. 4D", "result": "increased PCNA expression"}, {"measurement": "number of cells in S phase", "setting": "primary SCs; FACS, FIG. 4E", "result": "increased"}, {"measurement": "pp38/MAPK level", "setting": "primary SCs; FIG. 4C", "result": "increased levels of pp38/MAPK"}, {"measurement": "ROS production (DCF-DA)", "setting": "primary SCs; FIG. 4F", "result": "ROS production was decreased"}, {"measurement": "SOD-2 expression", "setting": "primary SCs; FIG. 4G", "result": "SOD-2 expression increased"}, {"measurement": "expression of Pax-7, MyoD and myogenin", "setting": "primary SCs; FIGS. 4A, 4B", "result": "only UAG challenge induced expression"}, {"measurement": "protection against ischemia-induced damage (overall in vivo effect)", "setting": "[4]; 100 μg/kg i.p. daily", "result": "protect against ischemia-induced damage"}, {"measurement": "foot damage (functional score)", "setting": "[4]; 100 μg/kg i.p. daily from day 0, FIG. 1A", "result": "damage was significantly higher in saline- and AG-treated groups than in the UAG-treated group"}, {"measurement": "capillary density, ischemic vs contralateral control muscles of the same animals", "setting": "[4]; 100 μg/kg i.p. daily, FIG. 1B", "result": "no such differences were observed"}, {"measurement": "number of functional vessels in ischemic muscles", "setting": "[4]; 100 μg/kg i.p. daily, FIG. 1B", "result": "larger number of functional vessels"}, {"measurement": "CD68-positive inflammatory cells", "setting": "[4]; 100 μg/kg i.p. daily, FIG. 1E", "result": "reduced number of CD68-positive inflammatory cells"}, {"measurement": "regenerating myofibers in gastrocnemius muscles", "setting": "[4]; 100 μg/kg i.p. daily, FIGS. 1C, 1D", "result": "increased number of regenerating myofibers"}, {"measurement": "myogenin-positive cells in ischemic muscles", "setting": "[4]; FIGS. 2E, 2F", "result": "increased number of myogenin-positive cells"}, {"measurement": "Pax-7/MyoD+ cells in ischemic muscles", "setting": "[4]; day 7", "result": "increased number of Pax-7/MyoD+ cells"}, {"measurement": "Pax-7/MyoD+ cells in ischemic muscles", "setting": "[4]; day 21", "result": "scattered Pax-7/MyoD+ cells were still present"}, {"measurement": "SOD-2/Pax-7+ cells in ischemic muscle", "setting": "[4]; double immunostaining, day 7, FIG. 3D", "result": "increased number of SOD-2/Pax-7+ cells"}, {"measurement": "expression of miR-221 and miR-222 in SCs (qRT-PCR)", "setting": "[5]; SCs from muscles of treated mice vs controls, FIG. 6A", "result": "significantly increased"}, {"measurement": "ROS production in SCs (DCF-DA)", "setting": "[5]; SCs from treated mice, FIG. 3B", "result": "ROS production was lower"}, {"measurement": "SOD-2 protein expression in SCs", "setting": "[5]; SCs from treated mice, Western blot, FIG. 3C", "result": "SOD-2 protein expression higher"}, {"measurement": "phospho(p)-p38/MAPK protein level in SCs", "setting": "[5]; Western blot, FIG. 2C", "result": "found to be higher"}, {"measurement": "number of isolated Pax-7/MyoD/Myf5+ SCs", "setting": "[5]; ex vivo, FIGS. 2B-2D", "result": "significantly increased number of Pax-7/MyoD/Myf5+SCs"}, {"measurement": "binding to GHSR-1a", "setting": "GHSR-1a", "result": "fails to bind"}, {"measurement": "cell-cycle entry and expression of SOD-2, Pax-7, MyoD, myogenin", "setting": "[6]", "result": "no longer had any effect"}, {"measurement": "p-p38/MAPK levels", "setting": "[6]", "result": "p-p38/MAPK levels were reduced"}]}]}
